pIC50: −log10 of the molar value.
target: T1, full length active recombinant SYK enzyme (Homo sapiens, UniProt P43405); experiment: Inhibition of Syk tyrosine phosphorylation activity (LANCE TR-FRET kinase assay); format: biochemical
T1 construct: full length active recombinant SYK enzyme (Millipore, Calif.); purchased Millipore
Experimental: Inhibition of Syk Tyrosine Phosphorylation Activity
Potency of candidate molecules for inhibiting Syk tyrosine phosphorylation activity is assessed by measuring the ability of a test compound to inhibit Syk-mediated tyrosine phosphorylation of a Syk-specific substrate.
SYK tyrosine phosphorylation activity is measured using the LANCE™ Technology developed by Perkin Elmer Life and Analytical Sciences (Boston, Mass.). LANCE™ refers to homogeneous time resolved fluorometry applications using techniques such as time-resolved fluorescence resonance energy transfer assay (TR-FRET) (see generally for procedures in Perkin Elmer Application Note—How to Optimize a Tyrosine Kinase Assay Using Time Resolved Fluorescence-Based LANCE Detection, wwww.perkinelmer.com/lifesciences). The assay principle involves detection of a phosphorylated substrate using energy transfer from a phosphospecific europium-labeled antibody to streptavidin-allophycocyanin as an acceptor.
To test the ability of candidate molecules to inhibit SYK tyrosine phosphorylation activity, molecules are reconstituted in 30% DMSO and serially diluted 1:3 with the final dilution containing DMSO in the absence of the candidate molecule. The final DMSO concentration in the assay is 3%. Kinase assays are performed as a two part reaction. […] The second reaction involves termination of the kinase reaction and the simultaneous addition of the detection reagents—europium-labeled anti-phosphotyrosine reagent (Eu-W1024-PY100, Perkin Elmer, Boston, Mass.) and Streptavidin-Allophycocyanin detection reagent (SA-APC, Prozyme, Calif.). The kinase reaction is performed in a black U-bottom 96-well microtitre plate. The final reaction volume is 50 μL and contains a final concentration of 1 nM active SYK enzyme, 550 nM SYK-substrate, and 100 μM ATP diluted in a buffer containing 50 mM Tris pH 7.5, 5 mM MgCl2, and 1 mM DTT. The reaction is allowed to proceed for 1 hour at room temperature. The quench buffer contains 100 mM Tris pH 7.5, 300 mM NaCl2, 20 mM EDTA, 0.02% Brij35, and 0.5% BSA. The detection reagents are added to the reaction mixture at the following dilutions-1:500 for Eu-W1024-PY100 and 1:250 for SA-APC. The kinase reaction is terminated by the addition of 50 μL quench buffer containing the detection reagents. The detection is allowed to proceed for 1 hr at room temperature. Detection of the phosphorylated substrate in the absence and presence of inhibitors is measured in the TR-FRET instrument, Analyst HT (Molecular Probes, Sunnyvale, Calif.) and the condition for measurements are set up using CriterionHost Release 2.0 (Molecular Probes, Sunnyvale, Calif.). The settings used are a follows: excitation 360 nm, emission 665-7.5 nm, beam splitter 350 nm 50/50, flash 100 pulses, delay 60 us, integration 400 us, z-height 2 mm. […] IC50s were derived by non-linear regression analysis. […]

With NC(=O)c1cc(F)c(N[C@@H]2CCCC[C@@H]2N)nc1Nc1cccc(-n2nccn2)c1 [Example 41, 2-(3-(2H-1,2,3-triazol-2-yephenylamino)-6-(1R,2S)-2-aminocyclohexylamino)-5-fluoronicotinamide] as the compound, how does the pIC50 read?
The pIC50 was 8.00 to 9.00.

How did the pIC50 turn out when NC(=O)c1ccc(N[C@@H]2CCCC[C@@H]2N)nc1Nc1ccc2ncsc2c1 [Example 403, 6-((1R,2S)-2-aminocyclohexylamino)-2-(benzo[d]thiazol-6-ylamino)nicotinamide] was run?
Its pIC50 is 8.00 to 9.00.

How did the pIC50 turn out when NC(=O)c1cc(F)c(N[C@@H]2CCCC(F)(F)[C@@H]2N)nc1Nc1cccc(-n2nccn2)c1 [Example 293] was run?
The pIC50 was 6.00 to 7.00.

With NC(=O)c1cc(F)c(N[C@@H]2CCCC(F)(F)[C@@H]2N)nc1Nc1cccc2ncsc12 [Example 329, 6-((1R,2R)-2-amino-3,3-difluorocyclohexylamino)-2-(benzo[d]thiazol-7-ylamino)-5-fluoronicotinamide] as the compound, how does the pIC50 read?
The pIC50 was 6.00 to 7.00.

NC(=O)c1cc(F)c(N[C@H](CC2CC2)C(N)=O)nc1Nc1cnc2ccccc2c1 [Example 251, (R)-6-(1-amino-3-cyclopropyl-1-oxopropan-2-ylamino)-5-fluoro-2-(quinolin-3-ylamino)nicotinamide] was tested. Which pIC50 did it give?
Its pIC50 is 8.00 to 9.00.

With N#Cc1cc(C(N)=O)c(Nc2ccc3ncsc3c2)nc1N[C@@H]1CCCC[C@@H]1N [Example 118, 6-((1R,2S)-2-aminocyclohexylamino)-2-(benzo[d]thiazol-6-ylamino)-5-cyanonicotinamide] as the compound, how does the pIC50 read?
The pIC50 was 8.00 to 9.00.

How did the pIC50 turn out when Cn1ncc2cc(Nc3nc(N[C@@H]4CCCC[C@@H]4N)ccc3C(N)=O)ccc21 [Example 399, 6-((1R,2S)-2-aminocyclohexylamino)-2-(1-methyl-1H-indazol-5-ylamino)nicotinamide] was run?
Its pIC50 is 8.00 to 9.00.

How did the pIC50 turn out when CC[C@@H](Nc1nc(Nc2ccnc3ccccc23)c(C(N)=O)cc1F)C(N)=O [Example 242, (R)-6-(1-amino-1-oxobutan-2-ylamino)-5-fluoro-2-(quinolin-4-ylamino)nicotinamide] was run?
Its pIC50 is 7.00 to 8.00.

Cc1cc(Nc2nc(N[C@@H]3CCCC[C@@H]3N)c(F)cc2C(N)=O)ccn1 [Example 85, 6-((1R,2S)-2-aminocyclohexylamino)-5-fluoro-2-(2-methylpyridin-4-ylamino)nicotinamide] was tested. Which pIC50 did it give?
The pIC50 was 8.00 to 9.00.

NC(=O)c1ccc(N[C@@H]2CCCC[C@@H]2N)nc1Nc1cccc(-n2cccn2)c1 [Example 192, 2-(3-(1H-pyrazol-1-yl)phenylamino)-6-((1R,2S)-2-aminocyclohexylamino)nicotinamide] was tested. Which pIC50 did it give?
The pIC50 was 8.00 to 9.00.

CC(C)C[C@H](CN)Nc1nc(Nc2cccc(-n3nccn3)c2)c(C(N)=O)cc1C#N [Example 110, (R)-2-(3-(2H-1,2,3-triazol-2-yl)phenylamino)-6-(1-amino-4-methylpentan-2-ylamino)-5-cyanonicotinamide] was tested. Which pIC50 did it give?
The pIC50 was 8.00 to 9.00.

With C[C@H](CN)Nc1nc(Nc2ccc3ncccc3c2)c(C(N)=O)cc1C#N [Example 114, (R)-6-(1-aminopropan-2-ylamino)-5-cyano-2-(quinolin-6-ylamino)nicotinamide] as the compound, how does the pIC50 read?
The pIC50 was 7.00 to 8.00.

With Cn1ncc2c(Nc3nc(N[C@@H]4CCCC(F)(F)[C@@H]4N)c(F)cc3C(N)=O)cccc21 [Example 387, 6-((1R,2R)-2-amino-3,3-difluorocyclohexylamino)-5-fluoro-2-(1-methyl-1H-indazol-4-ylamino)nicotinamide] as the compound, how does the pIC50 read?
The pIC50 was 6.00 to 7.00.

How did the pIC50 turn out when COc1cncc(Nc2nc(N[C@@H]3CCCC[C@@H]3N)c(F)cc2C(N)=O)c1 [Example 88, 6-((1R,2S)-2-aminocyclohexylamino)-5-fluoro-2-(5-methoxypyridin-3-ylamino)nicotinamide] was run?
The pIC50 was 8.00 to 9.00.

CC[C@@H](Nc1ccc(C(N)=O)c(Nc2cc(C)ns2)n1)C(N)=O [Example 210] was tested. Which pIC50 did it give?
Its pIC50 is 7.00 to 8.00.

How did the pIC50 turn out when NC(=O)c1cc(F)c(N[C@@H]2CCOC[C@@H]2N)nc1Nc1ccc2ncsc2c1 [Example 384, 6-((3R,4R)-3-aminotetrahydro-2H-pyran-4-ylamino)-2-(benzo[d]thiazol-6-ylamino)-5-fluoronicotinamide] was run?
The pIC50 was 8.00 to 9.00.

How did the pIC50 turn out when C[C@H](CN)Nc1nc(Nc2cccc3nn(C)cc23)c(C(N)=O)cc1C#N [Example 112, (R)-6-(1-aminopropan-2-ylamino)-5-cyano-2-(2-methyl-2H-indazol-4-ylamino)nicotinamide] was run?
Its pIC50 is 7.00 to 8.00.

How did the pIC50 turn out when CC[C@@H](Nc1ccc(C(N)=O)c(Nc2ccc3ncsc3c2)n1)C(N)=O [Example 206, (R)-6-(1-amino-1-oxobutan-2-ylamino)-2-(benzo[d]thiazol-6-ylamino)nicotinamide] was run?
The pIC50 was 7.00 to 8.00.

With NC(=O)c1cc(F)c(N[C@@H]2CCCC[C@@H]2N)nc1Nc1ccc(-n2cccn2)cc1 [Example 52, 2-(4-(1H-pyrazol-1-yl)phenylamino)-6-((1R,2S)-2-aminocyclohexylamino)-5-fluoronicotinamide] as the compound, how does the pIC50 read?
Its pIC50 is 8.00 to 9.00.

With NC(=O)c1ccc(N[C@@H]2CCCC[C@@H]2N)nc1Nc1cnc2cc[nH]c2c1 [Example 407] as the compound, how does the pIC50 read?
Its pIC50 is 7.00 to 8.00.

CC(C)n1ccc2c(Nc3nc(N[C@@H]4CCCC(F)(F)[C@@H]4N)c(F)cc3C(N)=O)cccc21 [Example 391, 6-((1R,2R)-2-amino-3,3-difluorocyclohexylamino)-5-fluoro-2-(1-isopropyl-1H-indol-4-ylamino)nicotinamide] was tested. Which pIC50 did it give?
The pIC50 was 7.00 to 8.00.

How did the pIC50 turn out when NC(=O)c1ccc(N[C@@H]2CCCC[C@@H]2N)cc1Nc1cc(-c2ccccc2)no1 [Example 7, 4-((1R,2S)-2-aminocyclohexylamino)-2-(3-phenylisoxazol-5-ylamino)benzamide] was run?
Its pIC50 is 7.00 to 8.00.

With C[C@H](N)CNc1nc(Nc2cccc(-n3cccn3)c2)c(C(N)=O)cc1F [Example 259, (S)-2-(3-(1H-pyrazol-1-yl)phenylamino)-6-(2-aminopropylamino)-5-fluoronicotinamide] as the compound, how does the pIC50 read?
Its pIC50 is 8.00 to 9.00.

How did the pIC50 turn out when Cn1cnc2cc(Nc3nc(N[C@@H]4CCCC[C@@H]4N)c(F)cc3C(N)=O)ccc21 [Example 153, 6-((1R,2S)-2-aminocyclohexylamino)-5-fluoro-2-(1-methyl-1H-benzo[d]imidazol-5-ylamino)nicotinamide] was run?
Its pIC50 is 8.00 to 9.00.

How did the pIC50 turn out when Cc1cc(Nc2nc(N[C@H](CC3CC3)C(N)=O)ccc2C(N)=O)sn1 [Example 211, (R)-6-(1-amino-3-cyclopropyl-1-oxopropan-2-ylamino)-2-(3-methylisothiazol-5-ylamino)nicotinamide] was run?
Its pIC50 is 7.00 to 8.00.

NC(=O)c1cc(F)c(N[C@@H]2CCCC[C@@H]2N)nc1Nc1ccc(-c2ncccn2)cc1 [Example 58, 6-((1R,2S)-2-aminocyclohexylamino)-5-fluoro-2-(4-(pyrimidin-2-yl)phenylamino)nicotinamide] was tested. Which pIC50 did it give?
Its pIC50 is 8.00 to 9.00.

CN1C(=O)Cc2c(Nc3nc(N[C@@H]4CCCC(F)(F)[C@@H]4N)c(F)cc3C(N)=O)cccc21 [Example 395, 6-((1R,2R)-2-amino-3,3-difluorocyclohexylamino)-5-fluoro-2-(1-methyl-2-oxoindolin-4-ylamino)nicotinamide] was tested. Which pIC50 did it give?
Its pIC50 is less than 6.00.

How did the pIC50 turn out when Cn1ncc2cc(Nc3nc(N[C@@H]4CCCC[C@@H]4N)c(F)cc3C(N)=O)ccc21 [Example 139, 2-(1-methyl-1H-indazol-5-ylamino)-6-((1R,2S)-2-aminocyclohexylamino)-5-fluoronicotinamide] was run?
Its pIC50 is 8.00 to 9.00.

How did the pIC50 turn out when Cc1cc(Nc2nc(N[C@@H]3CCCC[C@@H]3N)c(F)cc2C(N)=O)sn1 [Example 82, 6-((1R,2S)-2-aminocyclohexylamino)-5-fluoro-2-(3-methylisothiazol-5-ylamino)nicotinamide] was run?
Its pIC50 is 8.00 to 9.00.

How did the pIC50 turn out when CCC[C@@H](Nc1nc(Nc2ccc3cccnc3c2)c(C(N)=O)cc1F)C(N)=O [Example 201, (R)-6-(1-amino-1-oxopentan-2-ylamino)-5-fluoro-2-(quinolin-7-ylamino)nicotinamide] was run?
Its pIC50 is 6.00 to 7.00.

How did the pIC50 turn out when NC(=O)c1ccc(N[C@@H]2CCCC[C@@H]2N)cc1Nc1cccc(-n2nccn2)c1 [Example 5] was run?
Its pIC50 is 6.00 to 7.00.

NC(=O)c1cc(F)c(N[C@@H]2CCCC[C@@H]2N)nc1Nc1cncc(F)c1 [Example 89, 6-((1R,2S)-2-aminocyclohexylamino)-5-fluoro-2-(5-fluoropyridin-3-ylamino)nicotinamide] was tested. Which pIC50 did it give?
Its pIC50 is 8.00 to 9.00.

With Cn1ccc2c(Nc3nc(N[C@@H]4CCCC[C@@H]4N)ccc3C(N)=O)cccc21 [Example 396, 6-((1R,2S)-2-aminocyclohexylamino)-2-(1-methyl-1H-indol-4-ylamino)nicotinamide] as the compound, how does the pIC50 read?
The pIC50 was 8.00 to 9.00.

Source: patent US8846928B2 (Portola Pharmaceuticals, Inc., priority 2010, dated 2014)
